Experimental findings from patent publication US20150141433A1, “N-ARYLMETHYL SULFONAMIDE NEGATIVE MODULATORS OF NR2A” (Mnemosyne Pharmaceuticals, Inc., priority 2013, published 2015) are described below.

Where two headings read alike, the source gives them in different places.

In the assay the target is T1, NR1/NR2A (Homo sapiens, UniProt Q05586+Q12879).
T1 construct: host or cells: HEK293 (tetracycline-inducible NR2A expression)
In words: FDSS Ca2+ influx inhibition assay in HEK293 cells expressing NR1/NR2A. The format is cell-based. On the procedure: Cell Culture and plating: HEK293 cells expressing NR1/NR2A (Chantest, Cleveland, Ohio) were grown to 70-80% confluency as an adherent monolayer in standard tissue culture flasks at 37° C., 5% CO2 per supplier's instructions.
After induction, cell culture medium was removed and cells were rinsed once with Ca^2+ and Mg^2+-free Dulbecco's phosphate buffered saline. Cells were then removed from the flask using TrypLE™ Express (Life Technologies) according to the manufacturer's instructions and collected to 50 ml centrifuge tubes. Following two washes in Ca^27 Mg^2′-free HBSS with 20 mM HEPES (HHnoCa), cells were counted and viability assessed using trypan blue. To load cells with Ca^2′-sensitive dye, they were resuspended in fluo-8 plus Component B (AAT Bioquest Products) diluted in HHnoCa and incubated 15 minutes at 37° C., followed by 30 minutes at room temp (in dark). Cells were then washed and resuspended in HHnoCa to remove extracellular dye and plated in 384-well plates (Falcon, uncoated) at 20,000-30,000 cells/well in a final volume of 25 μL/well.
FDSS Assay: To each well of the plate, 10 μLtest compound, control (MK801) or HHnoCa buffer was added to a final concentration of 10 μM with a final concentration of DMSO of 0.1%. Following 10 minutes pre-incubation in the dark, plates are loaded onto the Hamamatsu FDSS 6000. After collecting baseline fluorescence images, 3 μM glutamate, 3 μM glycine, and 1 mM Ca^2+ in HHnoCa buffer is added to each well, and Ca^2+ is recorded for 3 minutes. Data were processed by computing ratio of fluorescence at the end of data collection to baseline fluorescence to assess degree of Ca^2+ influx inhibition relative to that observed in MK801.

Where [1] appears, read: 3 μM glutamate, 3 μM glycine, 1 mM Ca2+, Ca2+ influx inhibition relative to MK801, read-out: NR2A IC50.

T1 sequence (Q12879 23-1464, other chains not shown): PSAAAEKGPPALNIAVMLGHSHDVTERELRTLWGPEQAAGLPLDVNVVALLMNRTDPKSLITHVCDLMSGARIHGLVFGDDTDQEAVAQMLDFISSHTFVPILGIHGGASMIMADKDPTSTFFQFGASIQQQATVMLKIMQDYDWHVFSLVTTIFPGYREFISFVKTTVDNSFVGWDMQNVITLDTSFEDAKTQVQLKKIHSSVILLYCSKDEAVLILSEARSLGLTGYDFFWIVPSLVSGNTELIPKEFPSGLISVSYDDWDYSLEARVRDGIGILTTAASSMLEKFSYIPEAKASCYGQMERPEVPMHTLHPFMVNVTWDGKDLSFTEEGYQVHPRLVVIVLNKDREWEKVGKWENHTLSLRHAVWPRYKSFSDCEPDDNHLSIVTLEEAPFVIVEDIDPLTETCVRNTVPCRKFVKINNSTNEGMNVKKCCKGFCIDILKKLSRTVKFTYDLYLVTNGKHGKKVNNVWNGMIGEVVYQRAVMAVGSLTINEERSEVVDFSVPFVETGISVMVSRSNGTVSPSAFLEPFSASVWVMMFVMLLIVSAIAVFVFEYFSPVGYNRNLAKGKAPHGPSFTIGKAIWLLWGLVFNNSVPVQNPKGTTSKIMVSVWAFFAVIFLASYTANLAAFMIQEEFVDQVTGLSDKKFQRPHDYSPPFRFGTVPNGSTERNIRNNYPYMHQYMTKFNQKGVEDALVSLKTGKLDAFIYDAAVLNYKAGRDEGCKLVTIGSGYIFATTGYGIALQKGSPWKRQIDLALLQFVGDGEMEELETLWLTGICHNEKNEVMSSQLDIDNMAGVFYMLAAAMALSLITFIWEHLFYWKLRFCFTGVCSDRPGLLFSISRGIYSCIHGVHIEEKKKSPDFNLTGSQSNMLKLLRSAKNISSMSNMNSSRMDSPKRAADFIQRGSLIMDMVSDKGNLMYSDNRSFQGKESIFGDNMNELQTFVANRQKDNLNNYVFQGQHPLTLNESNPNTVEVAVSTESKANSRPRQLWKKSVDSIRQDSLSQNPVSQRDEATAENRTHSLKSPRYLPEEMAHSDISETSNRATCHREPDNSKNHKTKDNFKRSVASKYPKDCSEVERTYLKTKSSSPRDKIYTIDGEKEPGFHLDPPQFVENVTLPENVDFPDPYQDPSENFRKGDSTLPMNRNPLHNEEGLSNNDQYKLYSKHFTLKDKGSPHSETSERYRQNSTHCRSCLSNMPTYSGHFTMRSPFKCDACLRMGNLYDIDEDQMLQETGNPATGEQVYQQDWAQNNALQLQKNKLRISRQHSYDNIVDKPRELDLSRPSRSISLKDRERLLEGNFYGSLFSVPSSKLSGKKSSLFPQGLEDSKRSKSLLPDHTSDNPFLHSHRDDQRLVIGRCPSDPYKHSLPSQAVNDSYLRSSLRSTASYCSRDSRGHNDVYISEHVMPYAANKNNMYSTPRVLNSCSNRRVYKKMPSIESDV

In the case of `Cc1ncc(CNC(=O)c2ccc(CNS(=O)(=O)c3c(C)noc3C)cn2)s1`, the IC50 (binned NR2A inhibition concentration, read-out: Binned Activity) was > 10000 nM.
On to `Cc1ncc(CNC(=O)c2cnc(CNS(=O)(=O)c3ccc(Cl)c(Cl)c3)c(C)n2)s1` [5-(3,4-dichlorobenzenesulfon-amidomethyl)-6-methyl-N-[(2-methyl-1,3-thiazol-5-yl)methyl]pyrazine-2-carboxamide], for which the IC50 under setting [1] amounted to 494 nM.
As to `Cc1ncc(CNC(=O)c2ccc(CNS(=O)(=O)c3ccc(Cl)c(Cl)c3)cn2)s1` [5-(3,4-dichlorobenzenesulfon-amidomethyl)-N-[(2-methyl-1,3-thiazol-5-yl)methyl]pyridine-2-carboxamide], the IC50 under setting [1] worked out at 6680 nM.
The same measure, in the same setting: the result for `Cc1ncc(CNC(=O)c2cnc(CNS(=O)(=O)c3ccc(F)c(F)c3)cn2)s1` [5-(3,4-difluorobenzenesulfon-amidomethyl)-N-[(2-methyl-1,3-thiazol-5-yl)methyl]pyrazine-2-carboxamide] reads 313 nM; that for `Cc1ncc(CNC(=O)c2ccc(CNS(=O)(=O)c3ccc(F)c(F)c3)cn2)s1` [5-(3,4-difluorobenzenesulfon-amidomethyl)-N-[(2-methyl-1,3-thiazol-5-yl)methyl]pyridine-2-carboxamide], 219 nM; that for `Cc1ncc(CNC(=O)c2cnc(CNS(=O)(=O)c3cc(F)cc(F)c3)c(C)n2)s1` [5-(3,5-difluorobenzenesulfon-amidomethyl)-6-methyl-N-[(2-methyl-1,3-thiazol-5-yl)methyl]pyrazine-2-carboxamide], 366 nM.
Turning to `CCc1nc(C(=O)NCc2cnc(C)s2)cnc1CNS(=O)(=O)c1ccc(F)c(Cl)c1` [5-(3-chloro-4-fluorobenzenesulfon-amidomethyl)-6-ethyl-N-[(2-methyl-1,3-thiazol-5-yl)methyl]pyrazine-2-carboxamide], the IC50 under setting [1] was 87.8 nM.
On the same count and under the same terms, the result for `Cc1ncc(CNC(=O)c2cnc(CNS(=O)(=O)c3ccc(F)c(Cl)c3)c(C)n2)s1` [5-(3-chloro-4-fluorobenzenesulfon-amidomethyl)-6-methyl-N-[(2-methyl-1,3-thiazol-5-yl)methyl]pyrazine-2-carboxamide] reads 19.6 nM; that for `O=C(NCc1ccno1)c1ccc(CNS(=O)(=O)c2ccc(F)c(Cl)c2)cn1` [5-(3-chloro-4-fluorobenzenesulfon-amidomethyl)-N-(1,2-oxazol-5-ylmethyl)pyridine-2-carboxamide], 2180 nM.
On the same count and under the same terms, as for `O=C(NCc1cnco1)c1ccc(CNS(=O)(=O)c2ccc(F)c(Cl)c2)cn1` [5-(3-chloro-4-fluorobenzenesulfon-amidomethyl)-N-(1,3-oxazol-5-ylmethyl)pyridine-2-carboxamide], the figure is 1950 nM; as for `O=C(NCc1nccs1)c1ccc(CNS(=O)(=O)c2ccc(F)c(Cl)c2)cn1` [5-(3-chloro-4-fluorobenzenesulfon-amidomethyl)-N-(1,3-thiazol-2-ylmethyl)pyridine-2-carboxamide], 9130 nM.
On the same count and under the same terms, the result for `O=C(NCc1cncs1)c1cnc(CNS(=O)(=O)c2ccc(F)c(Cl)c2)cn1` [5-(3-chloro-4-fluorobenzenesulfon-amidomethyl)-N-(1,3-thiazol-5-ylmethyl)pyrazine-2-carboxamide] reads 929 nM; that for `O=C(NCc1cncs1)c1ccc(CNS(=O)(=O)c2ccc(F)c(Cl)c2)cn1` [5-(3-chloro-4-fluorobenzenesulfon-amidomethyl)-N-(1,3-thiazol-5-ylmethyl)pyridine-2-carboxamide], 347 nM.
Take `O=C(NCc1cnccn1)c1cnc(CNS(=O)(=O)c2ccc(F)c(Cl)c2)cn1` [5-(3-chloro-4-fluorobenzenesulfon-amidomethyl)-N-(pyrazin-2-ylmethyl)pyrazine-2-carboxamide]: the IC50 under setting [1] was found to be 2100 nM.
On the same count and under the same terms, the result for `O=C(NCc1cnccn1)c1ccc(CNS(=O)(=O)c2ccc(F)c(Cl)c2)cn1` [5-(3-chloro-4-fluorobenzenesulfon-amidomethyl)-N-(pyrazin-2-ylmethyl)pyridine-2-carboxamide] reads 1690 nM; that for `O=C(NCc1cccnc1)c1cnc(CNS(=O)(=O)c2ccc(F)c(Cl)c2)cn1` [5-(3-chloro-4-fluorobenzenesulfon-amidomethyl)-N-(pyridin-3-ylmethyl)pyrazine-2-carboxamide], 439 nM; that for `O=C(NCc1cccnc1)c1ccc(CNS(=O)(=O)c2ccc(F)c(Cl)c2)cn1` [5-(3-chloro-4-fluorobenzenesulfon-amidomethyl)-N-(pyridin-3-ylmethyl)pyridine-2-carboxamide], 758 nM.
Same read-out and setting: as for `O=C(NCc1ccncc1)c1cnc(CNS(=O)(=O)c2ccc(F)c(Cl)c2)cn1` [5-(3-chloro-4-fluorobenzenesulfon-amidomethyl)-N-(pyridin-4-ylmethyl)pyrazine-2-carboxamide], the figure is 1700 nM; as for `O=C(NCc1cncnc1)c1cnc(CNS(=O)(=O)c2ccc(F)c(Cl)c2)cn1` [5-(3-chloro-4-fluorobenzenesulfon-amidomethyl)-N-(pyrimidin-5-ylmethyl)pyrazine-2-carboxamide], 4840 nM; as for `O=C(NCc1cncnc1)c1ccc(CNS(=O)(=O)c2ccc(F)c(Cl)c2)cn1` [5-(3-chloro-4-fluorobenzenesulfon-amidomethyl)-N-(pyrimidin-5-ylmethyl)pyridine-2-carboxamide], 7390 nM.
In the case of `Cc1ncc(C(C)NC(=O)c2cnc(CNS(=O)(=O)c3ccc(F)c(Cl)c3)cn2)s1` (stereo not drawn) [5-(3-chloro-4-fluorobenzenesulfon-amidomethyl)-N-[1-(2-methyl-1,3-thiazol-5-yl)ethyl]pyrazine-2-carboxamide], the IC50 under setting [1] was found to be 180 nM.
The same measure, in the same setting: as for `CC(NC(=O)c1ccc(CNS(=O)(=O)c2ccc(F)c(Cl)c2)cn1)c1ccco1` (stereo not drawn) [5-(3-chloro-4-fluorobenzenesulfon-amidomethyl)-N-[1-(furan-2-yl)ethyl]pyridine-2-carboxamide], the figure is 5510 nM; as for `CC(NC(=O)c1ccc(CNS(=O)(=O)c2ccc(F)c(Cl)c2)cn1)c1cccs1` (stereo not drawn) [5-(3-chloro-4-fluorobenzenesulfon-amidomethyl)-N-[1-(thiophen-2-yl)ethyl]pyridine-2-carboxamide], 2400 nM; as for `Cc1ccc(CNC(=O)c2cnc(CNS(=O)(=O)c3ccc(F)c(Cl)c3)cn2)n1C` [5-(3-chloro-4-fluorobenzenesulfon-amidomethyl)-N-[(1,5-dimethyl-1H-pyrrol-2-yl)methyl]pyrazine-2-carboxamide], 757 nM.
Still for that read-out and setting: as for `Cn1cncc1CNC(=O)c1cnc(CNS(=O)(=O)c2ccc(F)c(Cl)c2)cn1` [5-(3-chloro-4-fluorobenzenesulfon-amidomethyl)-N-[(1-methyl-1H-imidazol-5-yl)methyl]pyrazine-2-carboxamide], the figure is 8950 nM; as for `Cn1cncc1CNC(=O)c1ccc(CNS(=O)(=O)c2ccc(F)c(Cl)c2)cn1` [5-(3-chloro-4-fluorobenzenesulfon-amidomethyl)-N-[(1-methyl-1H-imidazol-5-yl)methyl]pyridine-2-carboxamide], 8360 nM.
Consider `Cn1cc(CNC(=O)c2ccc(CNS(=O)(=O)c3ccc(F)c(Cl)c3)cn2)cn1` [5-(3-chloro-4-fluorobenzenesulfon-amidomethyl)-N-[(1-methyl-1H-pyrazol-4-yl)methyl]pyridine-2-carboxamide], for which, under setting [1], the IC50 is 4590 nM.
`Cn1cccc1CNC(=O)c1cnc(CNS(=O)(=O)c2ccc(F)c(Cl)c2)cn1` [5-(3-chloro-4-fluorobenzenesulfon-amidomethyl)-N-[(1-methyl-1H-pyrrol-2-yl)methyl]pyrazine-2-carboxamide]: the IC50 under setting [1] was determined as 3090 nM.
In the case of `Cn1cccc1CNC(=O)c1ccc(CNS(=O)(=O)c2ccc(F)c(Cl)c2)cn1` [5-(3-chloro-4-fluorobenzenesulfon-amidomethyl)-N-[(1-methyl-1H-pyrrol-2-yl)methyl]pyridine-2-carboxamide], under setting [1], the IC50 stood at 2550 nM.
The same measure, in the same setting: as for `C[C@@H](NC(=O)c1cnc(CNS(=O)(=O)c2ccc(F)c(Cl)c2)cn1)c1cncs1` [5-(3-chloro-4-fluorobenzenesulfon-amidomethyl)-N-[(1R)-1-(1,3-thiazol-5-yl)ethyl]pyrazine-2-carboxamide], the figure is 10500 nM; as for `COc1cc(CNC(=O)c2cnc(CNS(=O)(=O)c3ccc(F)c(Cl)c3)cn2)ccn1` [5-(3-chloro-4-fluorobenzenesulfon-amidomethyl)-N-[(2-methoxypyridin-4-yl)methyl]pyrazine-2-carboxamide], 850 nM; as for `COc1cc(CNC(=O)c2ccc(CNS(=O)(=O)c3ccc(F)c(Cl)c3)cn2)ccn1` [5-(3-chloro-4-fluorobenzenesulfon-amidomethyl)-N-[(2-methoxypyridin-4-yl)methyl]pyridine-2-carboxamide], 3020 nM.
Same read-out and setting: the result for `Cc1ncc(CNC(=O)c2cnc(CNS(=O)(=O)c3ccc(F)c(Cl)c3)c(C(F)(F)F)n2)s1` [5-(3-chloro-4-fluorobenzenesulfon-amidomethyl)-N-[(2-methyl-1,3-thiazol-5-yl)methyl]-6-(trifluoromethyl)pyrazine-2-carboxamide] reads 169 nM.
